In PubChem BioAssay AID256 (DTP/NCI, 2004):
Values joined by “and” are separate entries in the source; they are usually repeats but may differ in a detail not shown here. Identical values can stand only once. Toxic doses and inconclusive results are not listed. Rule for the calls: active = survival T/C of 150% or more; inactive = T/C below 125% in these data.

Test system: CD2F1 mice, L1210 leukemia ip, survival T/C
Assay: NCI In Vivo Anticancer Drug Screen. Data for tumor model L1210 Leukemia (intraperitoneal) in CD2F1 (CDF1) mice
Details: higher = longer survival
In short: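 Tumor-bearing mice (transplanted tumor) were split into treated and vehicle control groups, and the measured endpoint of each treated group was divided by that of its vehicle controls.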

[1] = endpoint: mean survival time, dose: 50.0 mg/kg/injection, schedule: Q04DX002 (ip), vehicle: saline with Tween-80
[2] = endpoint: mean survival time, dose: 100.0 mg/kg/injection, schedule: Q04DX002 (ip), vehicle: saline with Tween-80
[3] = endpoint: mean survival time, dose: 100.0 mg/kg/injection, schedule: Q04DX003 (ip), vehicle: saline with Tween-80
[4] = endpoint: mean survival time, dose: 200.0 mg/kg/injection, schedule: Q04DX003 (ip), vehicle: saline with Tween-80
[5] = endpoint: mean survival time, dose: 400.0 mg/kg/injection, schedule: Q04DX003 (ip), vehicle: saline with Tween-80
[6] = endpoint: mean survival time, dose: 100.0 mg/kg/injection, schedule: Q04DX003 (ip), vehicle: saline
[7] = endpoint: mean survival time, dose: 200.0 mg/kg/injection, schedule: Q04DX003 (ip), vehicle: saline
[8] = endpoint: mean survival time, dose: 400.0 mg/kg/injection, schedule: Q04DX003 (ip), vehicle: saline
[9] = endpoint: mean survival time, dose: 100.0 mg/kg/injection, schedule: Q01DX009 (ip), vehicle: saline with Tween-80
[10] = endpoint: mean survival time, dose: 200.0 mg/kg/injection, schedule: Q01DX009 (ip), vehicle: saline with Tween-80
[11] = endpoint: mean survival time, dose: 400.0 mg/kg/injection, schedule: Q01DX009 (ip), vehicle: saline with Tween-80
[12] = endpoint: mean survival time, dose: 50.0 mg/kg/injection, schedule: Q01DX009 (ip), vehicle: saline with Tween-80
[13] = endpoint: mean survival time, dose: 25.0 mg/kg/injection, schedule: Q01DX009 (ip), vehicle: saline with Tween-80

Measured: T/C

COc1cc[c-]cc1.[C-]#[O+].[C-]#[O+].[Fe+6].[c-]1[c-][c-][cH-][c-]1
inactive: [1] 102 % of control | [2] 102 % of control | endpoint: mean survival time, dose: 200.0 mg/kg/injection, schedule: Q04DX002 (ip), vehicle: saline with Tween-80 97 % of control

CCOC1CCN(CCCn2c3ccccc3c3ccccc32)CC1
inactive: endpoint: mean survival time, dose: 25.0 mg/kg/injection, schedule: Q04DX002 (ip), vehicle: saline with Tween-80 95 % of control | [1] 100 % of control | [2] 97 % of control and 111 % of control

Nc1nc(N)c(N=Nc2cccc(S(=O)(=O)O)c2)c(N)n1
inactive: [3] 107 % of control | [4] 101 % of control | [5] 101 % of control

FC(F)(F)COP1(OCC(F)(F)F)=NP(OCC(F)(F)F)(OCC(F)(F)F)=NP(c2ccccc2)(c2ccccc2)=N1
inactive: [6] 102 % of control | [7] 100 % of control | [8] 100 % of control

CC(NCCN1CC1)C1CC1 (centres undefined)
inactive: endpoint: mean survival time, dose: 17.6 mg/kg/injection, schedule: Q01DX009 (ip), vehicle: saline 94 % of control | endpoint: mean survival time, dose: 26.4 mg/kg/injection, schedule: Q01DX009 (ip), vehicle: saline 100 % of control | endpoint: mean survival time, dose: 40.0 mg/kg/injection, schedule: Q01DX009 (ip), vehicle: saline 105 % of control | endpoint: mean survival time, dose: 60.0 mg/kg/injection, schedule: Q01DX009 (ip), vehicle: saline 117 % of control

CC(=O)C1=C(O)C2(O)C(=O)c3c(c(C)c4ccc(C)c(O)c4c3O)CC2C(N)C1=O (centres undefined)
inactive: endpoint: mean survival time, dose: 3.75 mg/kg/injection, schedule: Q01DX009 (ip), vehicle: saline + alcohol 102 % of control and 105 % of control | endpoint: mean survival time, dose: 7.3 mg/kg/injection, schedule: Q01DX009 (ip), vehicle: saline + alcohol 103 % of control | endpoint: mean survival time, dose: 7.5 mg/kg/injection, schedule: Q01DX009 (ip), vehicle: saline + alcohol 107 % of control | endpoint: mean survival time, dose: 15.0 mg/kg/injection, schedule: Q01DX009 (ip), vehicle: saline + alcohol 107 % of control and 108 % of control | endpoint: mean survival time, dose: 30.0 mg/kg/injection, schedule: Q01DX009 (ip), vehicle: saline + alcohol 115 % of control | endpoint: mean survival time, dose: 60.0 mg/kg/injection, schedule: Q01DX009 (ip), vehicle: saline + alcohol 107 % of control and 111 % of control

NCCCNC/C=C/CNCCCN
inactive: endpoint: mean survival time, dose: 37.5 mg/kg/injection, schedule: Q01DX009 (ip), vehicle: saline 98 % of control | endpoint: mean survival time, dose: 75.0 mg/kg/injection, schedule: Q01DX009 (ip), vehicle: saline 101 % of control | endpoint: mean survival time, dose: 150.0 mg/kg/injection, schedule: Q01DX009 (ip), vehicle: saline 101 % of control

N#CCCN1C(=O)CCC1=O
inactive: [9] 97 % of control | [3] 95 % of control | [10] 95 % of control | [4] 97 % of control | [11] 92 % of control | [5] 95 % of control

O=c1c2ncn(C3OC(CO)C(O)C3O)c2nc[n]1[Hg][c]1ccccc1 (centres undefined)
inactive: endpoint: median survival time, dose: 0.79 mg/kg/injection, schedule: Q01DX005 (ip), vehicle: saline 103 % of control | endpoint: median survival time, dose: 1.56 mg/kg/injection, schedule: Q01DX005 (ip), vehicle: saline 111 % of control | endpoint: median survival time, dose: 3.12 mg/kg/injection, schedule: Q01DX005 (ip), vehicle: saline 115 % of control | endpoint: median survival time, dose: 6.25 mg/kg/injection, schedule: Q01DX005 (ip), vehicle: saline 105 % of control | endpoint: median survival time, dose: 12.5 mg/kg/injection, schedule: Q01DX005 (ip), vehicle: saline 112 % of control

COc1cc(C2C3CN(C4CCCCC4)C(=O)C3NN2C(C)=O)ccc1OC(C)=O (centres undefined)
inactive: [9] 93 % of control | [10] 95 % of control | [11] 95 % of control

C=C1C(=O)OC2CC(C)C3CC(OCCCl)OC(OCCCl)C3(C)CC12 (centres undefined)
inactive: endpoint: mean survival time, dose: 10.0 mg/kg/injection, schedule: Q01DX005 (ip), vehicle: water 98 % of control | endpoint: mean survival time, dose: 20.0 mg/kg/injection, schedule: Q01DX005 (ip), vehicle: water 96 % of control | endpoint: mean survival time, dose: 40.0 mg/kg/injection, schedule: Q01DX005 (ip), vehicle: water 93 % of control | endpoint: mean survival time, dose: 50.0 mg/kg/injection, schedule: Q01DX005 (ip), vehicle: distilled water + Tween-80 92 % of control | endpoint: mean survival time, dose: 80.0 mg/kg/injection, schedule: Q01DX005 (ip), vehicle: water 94 % of control | endpoint: mean survival time, dose: 100.0 mg/kg/injection, schedule: Q01DX005 (ip), vehicle: distilled water + Tween-80 97 % of control | endpoint: mean survival time, dose: 200.0 mg/kg/injection, schedule: Q01DX005 (ip), vehicle: distilled water + Tween-80 89 % of control | endpoint: mean survival time, dose: 400.0 mg/kg/injection, schedule: Q01DX005 (ip), vehicle: distilled water + Tween-80 94 % of control

OCC1OC(n2ccc3c2ncn2ncnc32)C(O)C1O (centres undefined)
inactive: endpoint: mean survival time, dose: 6.25 mg/kg/injection, schedule: Q01DX005 (ip), vehicle: water 114 % of control | endpoint: mean survival time, dose: 12.5 mg/kg/injection, schedule: Q01DX005 (ip), vehicle: water 114 % of control | endpoint: mean survival time, dose: 25.0 mg/kg/injection, schedule: Q01DX005 (ip), vehicle: water 117 % of control | endpoint: mean survival time, dose: 50.0 mg/kg/injection, schedule: Q01DX005 (ip), vehicle: water 88 % of control and 106 % of control

O=Cc1[nH]c(=S)[nH]c(=O)c1Cc1cccc2ccccc12
inactive: [3] 96 % of control | [4] 95 % of control | [5] 102 % of control

CCC/C=C\CC(C)C(C)CC (centres undefined)
inactive: [6] 101 % of control | [7] 108 % of control | [8] 104 % of control

CCOC1(CC)CN(Cc2ccccc2)CCO1 (centres undefined)
inactive: [3] 100 % of control | [4] 100 % of control | [5] 97 % of control

Cn1ncc2c1C(=O)c1nc(-c3ccccc3)c(-c3ccccc3)nc1C2=O
inactive: endpoint: mean survival time, dose: 50.0 mg/kg/injection, schedule: Q04DX003 (ip), vehicle: saline 98 % of control | [6] 92 % of control

COc1ccc(OC)c(NC(=O)Nc2ccc(C)c([N+](=O)[O-])c2)c1
inactive: [12] 98 % of control | [9] 94 % of control | [10] 94 % of control

O=c1c2ccsc2ncn1C1OC(CO)C(O)C1O (centres undefined)
inactive: endpoint: mean survival time, dose: 12.5 mg/kg/injection, schedule: Q01DX009 (ip), vehicle: saline with Tween-80 111 % of control | [13] 111 % of control | [12] 91 % of control

O=S(=O)(O)c1ccc(-c2c3nc(c(-c4ccc(S(=O)(=O)O)cc4)c4ccc([nH]4)c(-c4ccc(S(=O)(=O)O)cc4)c4nc(c(-c5ccc(S(=O)(=O)O)cc5)c5ccc2[nH]5)C=C4)C=C3)cc1
inactive: endpoint: mean survival time, dose: 100.0 mg/kg/injection, schedule: Q01DX001 (ip), vehicle: saline 108 % of control | endpoint: mean survival time, dose: 200.0 mg/kg/injection, schedule: Q01DX001 (ip), vehicle: saline 108 % of control | endpoint: mean survival time, dose: 400.0 mg/kg/injection, schedule: Q01DX001 (ip), vehicle: saline 113 % of control

COc1cc(C(=O)NC(=S)Nc2ccc3ccccc3c2)cc(OC)c1OC
inactive: [9] 90 % of control | [10] 94 % of control

CC1=C(Br)C(=O)C(Br)=C(Br)C1=O
inactive: [13] 96 % of control
